{"source": "paper PMC5214746", "about": "“Biological and Chemical Adaptation to Endogenous Hydrogen Peroxide Production in Streptococcus pneumoniae D39” (mSphere, 2017)", "molecular_target": "T1, S. pneumoniae SpxB (pyruvate oxidase) (Streptococcus pneumoniae, UniProt A0A0H2ZP58)", "T1 construct": "recombinant from E. coli Rosetta BL21(DE3)/pLysS, pHis-parallel vector, His tag apparently kept", "T1 sequence (A0A0H2ZP58 entry or part of it)": "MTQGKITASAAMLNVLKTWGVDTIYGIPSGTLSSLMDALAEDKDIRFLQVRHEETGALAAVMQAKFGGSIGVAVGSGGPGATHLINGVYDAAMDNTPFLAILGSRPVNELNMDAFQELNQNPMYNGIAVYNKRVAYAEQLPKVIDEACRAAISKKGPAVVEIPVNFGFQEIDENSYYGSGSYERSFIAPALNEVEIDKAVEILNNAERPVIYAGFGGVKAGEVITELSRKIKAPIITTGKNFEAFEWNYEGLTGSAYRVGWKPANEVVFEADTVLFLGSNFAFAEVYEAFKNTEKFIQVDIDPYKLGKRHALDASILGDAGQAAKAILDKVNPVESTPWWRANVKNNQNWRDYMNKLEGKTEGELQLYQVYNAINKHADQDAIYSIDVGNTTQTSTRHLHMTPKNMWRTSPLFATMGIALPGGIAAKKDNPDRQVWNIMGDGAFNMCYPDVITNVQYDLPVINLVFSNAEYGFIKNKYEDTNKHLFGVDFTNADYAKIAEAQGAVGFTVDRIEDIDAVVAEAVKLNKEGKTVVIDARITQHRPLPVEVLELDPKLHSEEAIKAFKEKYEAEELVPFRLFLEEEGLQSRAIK", "test": "H2O2 generation, peroxidase-coupled quinoneimine dye at […] nm", "format": "biochemical", "conditions": "0.2 mM pyruvate, 50 mM KH2PO4 pH 6, 0.2 mM FAD, 0.2 mM TPP, 0.5 to 2 mM Mg(II) or Mn(II), 37 °C", "data": [{"compound": "CC(=O)C(=O)O", "note": "[sodium pyruvate]", "values": [{"measurement": "H2O2 generation, peroxidase-coupled quinoneimine dye at 550 nm", "result": "Quinoneimine dye formation was monitored in triplicate with the addition of sodium pyruvate"}]}]}
